# Measured values: patent US20250186734A1, “METHODS AND SYSTEMS FOR AUTOMATED NEUR[…] TO EXTEND RELIEF OF TREATMENT-RESISTANT MENTAL DISORDERS” (UNIVERSITY OF PITTSBURGH-OF THE COMMONWEALTH SYSTEM OF …, priority 2022, published 2025)
# Key:
# depressed patients = settings: cited from earlier work
# [1] = system: patients with treatment-resistant depression; experiment: Randomized controlled trial of ketamine infusion and automated self-association training (ASAT/NT): MADRS depression severity; format: in vivo, human
# From the text: Participants. To achieve the initial recruitment target of n=150 patients, the study enrolled and randomized n=154 patients, continuing enrollment until a final sample was acquired that included the full target of n=150 patients who completed, at a minimum, (1) an infusion day, (2) a 24-hour assessment visit, and (3) ≥75% of intended Cognitive Training (active or sham NT) visits. All n=154 randomized patients were included in the reported intent-to-treat analyses. In particular, 154 adult (age 18-60) patients reporting moderate-to-severe levels of depression [Montgomery-Asberg Depression Rating Scale (MADRS; [Montgomery S A, Asberg M: A new depression scale designed to be sensitive to change. Br J Psychiatry. 1979; 134:382-9]) score 25], lower-than-normative self-reported self-esteem [i.e., scoring outside of 1SD from the normative mean on the Cognitive Triad Inventory [Beckham E E, Leber W R, Watkins J T, Boyer J L, Cook J B: Development of an instrument to measure Beck's cognitive triad: the Cognitive Triad Inventory. J Consult Clin Psychol. 1986; 54(4):566-7]“self” subscale [Anderson K W, Skidmore J R: Empirical analysis of factors in depressive cognition: the cognitive triad inventory. J Clin Psychol. 1995; 51(5):603-9; Possel P: Cognitive Triad Inventory (CTI): psychometric properties and factor structure of the German translation. J Behav Ther Exp Psychiatry. 2009; 40(2):240-7] and/or the Rosenberg Self-Esteem Scale], and at least one failed, adequate trial of an FDA-approved antidepressant medication in the current depressive episode (per Antidepressant Treatment Response Questionnaire; ATRQ [Chandler G M, losifescu DV, Pollack M H, Targum S D, Fava M: RESEARCH: Validation of the Massachusetts General Hospital Antidepressant Treatment History Questionnaire (ATRQ). CNS Neurosci Ther. 2010; 16(5):322-5]), were recruited and randomized. Any existing depression treatment regimens were required to be stably maintained beginning 4 weeks prior to screening and throughout the trial. See FIG. 10, Table S1 and Examples 6-8 below for sample characteristics.
# Assessment Timeline. An experienced, Master's level clinical rater (CRS) administered the MADRS, the study's pre-specified primary endpoint throughout the acute (30-day) study period, to assess overall depression severity. The measure was repeated at screening (used for eligibility determinations only), pre-infusion baseline (infusion −1 hour; the clinical rater then left and was not present during any intervention procedure), infusion +24 hours (prior to the first session of active/sham NT), +5, +12, +21, and +30 days. […] This study also contemplates including and analyzing neurocognitive (e.g., neuroimaging; performance-based) assessments of ketamine's impact. Adequacy of both patient and rater blinding, for both infusion and NT allocation, was assessed by self-report using a 0-100 sliding scale (0=definitely placebo/sham; 50=1 don't know; 100=definitely ketamine/active) at infusion+30 days.
# Interventions. A randomization table using permuted blocks of 3 or 6, stratified by (1) biological sex at birth and (2) modest vs. severe treatment resistance (severe=≥3 FDA-approved antidepressant trials in episode, per ATRQ), was generated by an independent statistical consultant at study start and maintained by the study pharmacist, who, at the point of randomization, conveyed the NT allocation (but not the infusion allocation) to a single study staff member who was assigned to that patient. This single staff member was tasked with opening the correct computer program to deliver the NT sessions to that patient, but was not involved in, nor present for, any outcome ratings. Blinding for all other study personnel was maintained until after the final patient's Day 30 assessment was complete.
# Infusion. Participants were randomized 2:1 to ketamine (0.5 mg/kg over 40 min) or saline (50 ml 0.9% Sodium Chloride over 40 min) infusion. […]
# [2] = system: patients with treatment-resistant depression; experiment: Adverse event monitoring after infusion in the trial; format: in vivo, human; settings: 0.5 mg/kg over 40 min infusion, monitoring for 4 hours post-infusion
# Experimental: Infusion. Participants were randomized 2:1 to ketamine (0.5 mg/kg over 40 min) or saline (50 ml 0.9% Sodium Chloride over 40 min) infusion. All infusions were administered by blinded, licensed nurses in a medical hospital setting with a linked ACLS-certified team, with blinded study physician (RHH) oversight and safety/adverse event monitoring sustained for 4-hours post-infusion.
# [3] = 24 hours post-infusion, ketamine vs saline
compound,measurement,setting,value
CNC1(c2ccccc2Cl)CCCCC1=O (centres unmarked) [ketamine],response rates in depressed patients,depressed patients; as early as 2 hours post-ketamine,55-80%
same,time within which symptoms are dramatically reduced,depressed patients; intravenous ketamine,2 to 24 h
same,duration of improvements provided by a single infusion in isolation,depressed patients; prior published work,1-2 week
same,time after which effects of a single infusion dissipate,depressed patients; single infusion,3 to 7 days
same,remitter rate (MADRS≤9),[1]; 24 hours post-infusion,28%
same,responder rate (≥50% decrease from pre-infusion MADRS baseline),[1]; 24 hours post-infusion,52%
same,NNT for remission,[1]; [3],4.2
same,number-needed-to-treat (NNT) for response,[1]; [3],3.7
same,"MADRS total depression score, group by time interaction, standardized β","[1]; infusion phase, pre-infusion to 24 hours post-infusion, ketamine 0.5 mg/kg over 40 min vs saline",−1.30
same,duration of the rapid antidepressant effect of a single infusion extended by Cognitive Training,[1]; single ketamine infusion followed by 8 sessions of Cognitive Training,at least 30 days
same,adverse events,[2],"mild-to-moderate, time-limited"
